Results published in PMC3108484 (Frontiers in Pharmacology, 2011).

Tests used:
Human A1 = Human A1 (Homo sapiens, UniProt P30542); experiment: Radioligand binding: Human A1
Human M3 = Human M3 (Homo sapiens, UniProt P20309); experiment: Radioligand binding: Human M3
Human β2 = Human β2 (Homo sapiens, UniProt P07550); experiment: Radioligand binding: Human β2
Rat CRF1 = Rat CRF1 (Rattus norvegicus, UniProt P35353); experiment: Radioligand binding: Rat CRF1
Rat NMDA = Rat NMDA (Rattus norvegicus, UniProt Q00959); experiment: Radioligand binding: Rat NMDA; conditions: read-out: % Inhibition of specific binding (1 μM)
Human COX1 = Human COX1 (Homo sapiens, UniProt P23219); experiment: Enzyme inhibition: Human COX1
Human COX2 = Human COX2 (Homo sapiens, UniProt P35354); experiment: Enzyme inhibition: Human COX2
Sequence of Human COX2 (P35354 18-604): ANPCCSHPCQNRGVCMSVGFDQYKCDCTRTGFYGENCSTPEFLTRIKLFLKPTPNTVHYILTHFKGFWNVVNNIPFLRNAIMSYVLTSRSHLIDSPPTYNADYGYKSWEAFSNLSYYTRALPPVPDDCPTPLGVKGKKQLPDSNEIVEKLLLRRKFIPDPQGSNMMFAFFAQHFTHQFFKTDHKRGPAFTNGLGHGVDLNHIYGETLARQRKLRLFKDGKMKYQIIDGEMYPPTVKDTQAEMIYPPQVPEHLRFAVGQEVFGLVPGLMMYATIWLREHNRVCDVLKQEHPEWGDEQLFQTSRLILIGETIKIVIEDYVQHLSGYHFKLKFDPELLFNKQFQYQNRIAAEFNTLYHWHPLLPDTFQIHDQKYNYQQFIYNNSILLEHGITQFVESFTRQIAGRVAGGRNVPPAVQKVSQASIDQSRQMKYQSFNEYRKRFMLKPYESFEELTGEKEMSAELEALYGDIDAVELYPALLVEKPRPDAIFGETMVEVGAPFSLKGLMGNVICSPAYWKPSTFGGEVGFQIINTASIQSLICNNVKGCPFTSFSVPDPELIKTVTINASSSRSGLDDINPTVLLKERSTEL

Human PDE4 = experiment: Enzyme inhibition: Human PDE4; conditions: [3H]-cAMP + cAMP 1 μM, TD-8954 1 μM
Human A2A = Human A2A (Homo sapiens, UniProt P29274); experiment: Radioligand binding: Human A2A
Sequence of Human A2A (P29274 whole entry): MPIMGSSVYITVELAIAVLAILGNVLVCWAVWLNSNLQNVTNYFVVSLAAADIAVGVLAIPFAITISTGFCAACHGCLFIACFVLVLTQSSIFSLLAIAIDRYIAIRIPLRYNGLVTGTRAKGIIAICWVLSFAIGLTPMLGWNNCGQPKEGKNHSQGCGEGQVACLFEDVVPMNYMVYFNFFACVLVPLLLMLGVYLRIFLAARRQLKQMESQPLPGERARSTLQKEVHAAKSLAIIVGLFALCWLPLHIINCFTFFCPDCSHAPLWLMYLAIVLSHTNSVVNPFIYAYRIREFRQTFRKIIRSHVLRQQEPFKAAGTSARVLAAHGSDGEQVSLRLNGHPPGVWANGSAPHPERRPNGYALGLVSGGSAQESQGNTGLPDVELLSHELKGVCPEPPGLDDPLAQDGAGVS

Human D2S = Human D2S (Homo sapiens, UniProt P14416); experiment: Radioligand binding: Human D2S
Sequence of Human D2S (P14416 1-414 isoform P14416-2): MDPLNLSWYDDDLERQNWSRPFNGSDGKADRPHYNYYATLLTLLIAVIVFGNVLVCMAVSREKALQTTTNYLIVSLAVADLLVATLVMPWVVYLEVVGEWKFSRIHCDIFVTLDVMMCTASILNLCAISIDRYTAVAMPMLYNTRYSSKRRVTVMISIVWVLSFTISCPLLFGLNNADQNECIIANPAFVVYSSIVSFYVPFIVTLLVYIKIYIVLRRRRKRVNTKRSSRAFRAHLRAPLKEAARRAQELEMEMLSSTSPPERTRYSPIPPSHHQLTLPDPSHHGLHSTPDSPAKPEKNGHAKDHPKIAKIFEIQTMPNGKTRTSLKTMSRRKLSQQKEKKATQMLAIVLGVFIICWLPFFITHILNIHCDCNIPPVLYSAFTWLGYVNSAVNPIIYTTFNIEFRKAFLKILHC

Human AT1 = Human AT1 (Homo sapiens, UniProt P30556); experiment: Radioligand binding: Human AT1
Sequence of Human AT1 (P30556 whole entry): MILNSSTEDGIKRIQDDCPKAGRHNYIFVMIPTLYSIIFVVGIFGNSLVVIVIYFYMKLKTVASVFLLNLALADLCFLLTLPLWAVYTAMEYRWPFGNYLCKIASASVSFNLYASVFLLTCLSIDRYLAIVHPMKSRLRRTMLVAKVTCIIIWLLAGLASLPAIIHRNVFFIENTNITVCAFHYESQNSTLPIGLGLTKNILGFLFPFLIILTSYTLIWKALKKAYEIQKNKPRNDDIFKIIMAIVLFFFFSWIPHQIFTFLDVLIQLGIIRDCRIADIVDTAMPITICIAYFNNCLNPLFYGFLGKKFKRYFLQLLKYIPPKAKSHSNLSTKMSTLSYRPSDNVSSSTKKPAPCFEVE

Human NK1 = Human NK1 (Homo sapiens, UniProt P25103); experiment: Radioligand binding: Human NK1
Sequence of Human NK1 (P25103 whole entry): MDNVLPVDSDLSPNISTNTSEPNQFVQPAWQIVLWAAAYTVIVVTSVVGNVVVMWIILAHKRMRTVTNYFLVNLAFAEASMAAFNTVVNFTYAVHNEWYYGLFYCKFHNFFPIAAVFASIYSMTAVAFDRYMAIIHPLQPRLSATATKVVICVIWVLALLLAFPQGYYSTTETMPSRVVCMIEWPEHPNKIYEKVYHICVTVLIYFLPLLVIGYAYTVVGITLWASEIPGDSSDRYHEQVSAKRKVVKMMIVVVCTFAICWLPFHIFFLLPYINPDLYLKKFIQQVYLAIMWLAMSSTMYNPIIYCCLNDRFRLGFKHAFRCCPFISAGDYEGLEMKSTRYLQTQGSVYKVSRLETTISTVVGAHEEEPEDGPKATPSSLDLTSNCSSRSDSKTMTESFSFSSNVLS

Human NK2 = Human NK2 (Homo sapiens, UniProt P21452); experiment: Radioligand binding: Human NK2
Human V1a = Human V1a (Homo sapiens, UniProt P37288); experiment: Radioligand binding: Human V1a
Sequence of Human V1a (P37288 whole entry): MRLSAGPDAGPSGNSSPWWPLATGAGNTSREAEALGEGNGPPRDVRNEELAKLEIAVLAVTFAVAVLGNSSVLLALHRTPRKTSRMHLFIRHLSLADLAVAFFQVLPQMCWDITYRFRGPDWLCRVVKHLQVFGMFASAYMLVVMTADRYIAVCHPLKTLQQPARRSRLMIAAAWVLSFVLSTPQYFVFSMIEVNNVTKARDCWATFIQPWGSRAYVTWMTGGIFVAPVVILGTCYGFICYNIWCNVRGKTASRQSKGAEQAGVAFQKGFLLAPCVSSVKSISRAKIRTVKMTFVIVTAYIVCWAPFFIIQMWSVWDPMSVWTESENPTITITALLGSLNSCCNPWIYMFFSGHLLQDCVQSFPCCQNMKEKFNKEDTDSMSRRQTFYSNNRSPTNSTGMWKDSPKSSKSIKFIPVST

Human CGRP = Human CGRP (Homo sapiens, UniProt O60894+Q16602); experiment: Radioligand binding: Human CGRP
Human 5-HT7 = Human 5-HT7 (Homo sapiens, UniProt P34969); experiment: Radioligand binding: Human 5-HT7
Rat kainate = experiment: Radioligand binding: Rat kainate; conditions: [3H]-kainic acid 5 nM
Human 5-HT1A = Human 5-HT1A (Homo sapiens, UniProt P08908); experiment: Radioligand binding: Human 5-HT1A
Human 5-HT2B = Human 5-HT2B (Homo sapiens, UniProt P41595); experiment: Radioligand binding: Human 5-HT2B
Human 5-HT2C = Human 5-HT2C (Homo sapiens, UniProt P28335); experiment: Radioligand binding: Human 5-HT2C
Human 5-HT3a = Human 5-HT3a (Homo sapiens, UniProt P46098); experiment: Radioligand binding: Human 5-HT3a
Guinea pig H1 = Guinea pig H1 (Cavia porcellus, UniProt P31389); experiment: Radioligand binding: Guinea pig H1
Human motilin = Human motilin (Homo sapiens, UniProt O43193); experiment: Radioligand binding: Human motilin
[1] = target: Rat α4β2 nAChR (α-BGTX-insensitive) (Rattus norvegicus, UniProt P09483+P12390); experiment: Radioligand binding: Rat α4β2 nAChR
Rat PACAP (PAC1) = Rat PACAP (PAC1) (Rattus norvegicus, UniProt P32215); experiment: Radioligand binding: Rat PACAP
Sequence of Rat PACAP (PAC1) (P32215 20-523): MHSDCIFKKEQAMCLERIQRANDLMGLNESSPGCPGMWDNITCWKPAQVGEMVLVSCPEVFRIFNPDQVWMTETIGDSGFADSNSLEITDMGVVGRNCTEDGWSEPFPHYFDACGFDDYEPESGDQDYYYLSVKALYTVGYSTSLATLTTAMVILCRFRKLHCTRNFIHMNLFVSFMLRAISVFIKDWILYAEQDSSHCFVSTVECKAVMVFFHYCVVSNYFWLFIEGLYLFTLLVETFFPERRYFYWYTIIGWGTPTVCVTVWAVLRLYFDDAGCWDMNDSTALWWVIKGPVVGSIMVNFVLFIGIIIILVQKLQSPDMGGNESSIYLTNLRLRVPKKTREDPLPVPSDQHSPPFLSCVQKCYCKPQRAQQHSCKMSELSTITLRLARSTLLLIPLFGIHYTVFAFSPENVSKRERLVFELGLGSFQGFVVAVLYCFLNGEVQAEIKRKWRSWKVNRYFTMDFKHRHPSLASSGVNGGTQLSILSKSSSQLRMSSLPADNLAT

Human VPAC2 (VIP2) = Human VPAC2 (VIP2) (Homo sapiens, UniProt P41587); experiment: Radioligand binding: Human VPAC2
Sequence of Human VPAC2 (VIP2) (P41587 24-438): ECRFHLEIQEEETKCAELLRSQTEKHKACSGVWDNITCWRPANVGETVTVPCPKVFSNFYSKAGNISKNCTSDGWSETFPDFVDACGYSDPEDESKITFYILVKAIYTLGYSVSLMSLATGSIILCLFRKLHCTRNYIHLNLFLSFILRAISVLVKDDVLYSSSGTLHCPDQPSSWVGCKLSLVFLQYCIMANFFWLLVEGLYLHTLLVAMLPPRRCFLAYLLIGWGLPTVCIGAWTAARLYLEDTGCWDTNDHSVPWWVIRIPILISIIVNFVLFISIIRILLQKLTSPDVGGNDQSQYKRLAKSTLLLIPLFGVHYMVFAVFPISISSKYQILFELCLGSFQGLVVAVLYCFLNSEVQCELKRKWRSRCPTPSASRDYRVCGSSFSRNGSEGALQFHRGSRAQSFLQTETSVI

Rat σ (non-selective) = experiment: Radioligand binding: Rat σ; conditions: [3H]-DTG 8 nM
Rat GABA (non-selective) = experiment: Radioligand binding: Rat GABA; conditions: [3H]-GABA 10 nM
[2] = target: Mouse sst (non-selective); experiment: Radioligand binding: Mouse sst; conditions: [125I]-Tyr11-somatostatin 0.05 nM
human Nav1.5 = human Nav1.5 (Homo sapiens, UniProt Q14524); experiment: Whole cell voltage-clamp, cardiac sodium current; conditions: 3 μM for 3 min, n = 3 cells
rat Nav1.2 = experiment: Whole cell voltage-clamp, neuronal sodium current; conditions: 3 μM for 3 min, n = 3 cells
Guinea pig κ kappa = Guinea pig κ kappa (Cavia porcellus, UniProt P41144); experiment: Radioligand binding: Guinea pig κ opiate receptor
[3] = target: Human norepinephrine transporter (Homo sapiens, UniProt P23975); experiment: Radioligand binding: Human norepinephrine transporter
Sequence of Human norepinephrine transporter (P23975 whole entry): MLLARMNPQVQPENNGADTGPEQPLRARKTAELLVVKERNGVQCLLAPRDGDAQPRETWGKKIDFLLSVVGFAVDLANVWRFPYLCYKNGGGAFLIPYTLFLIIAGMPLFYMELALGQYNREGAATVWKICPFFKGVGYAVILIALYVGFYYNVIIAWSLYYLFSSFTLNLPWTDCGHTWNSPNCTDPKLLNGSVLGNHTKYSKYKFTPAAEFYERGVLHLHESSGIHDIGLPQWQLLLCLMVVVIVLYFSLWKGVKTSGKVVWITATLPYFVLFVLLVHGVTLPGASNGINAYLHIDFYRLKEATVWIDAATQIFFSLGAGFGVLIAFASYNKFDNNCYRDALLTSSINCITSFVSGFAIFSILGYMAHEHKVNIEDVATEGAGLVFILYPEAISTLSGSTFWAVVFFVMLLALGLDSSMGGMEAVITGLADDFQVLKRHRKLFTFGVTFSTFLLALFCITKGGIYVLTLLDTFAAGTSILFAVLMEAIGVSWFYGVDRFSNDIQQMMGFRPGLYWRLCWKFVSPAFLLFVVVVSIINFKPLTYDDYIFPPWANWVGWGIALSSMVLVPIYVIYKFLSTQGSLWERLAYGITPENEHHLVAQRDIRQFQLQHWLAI

[4] = read-out: % Inhibition of specific binding (1 μM)
[5] = read-out: % Inhibition of control (1 μM)

Sequence of Rat CRF1 (P35353 24-415): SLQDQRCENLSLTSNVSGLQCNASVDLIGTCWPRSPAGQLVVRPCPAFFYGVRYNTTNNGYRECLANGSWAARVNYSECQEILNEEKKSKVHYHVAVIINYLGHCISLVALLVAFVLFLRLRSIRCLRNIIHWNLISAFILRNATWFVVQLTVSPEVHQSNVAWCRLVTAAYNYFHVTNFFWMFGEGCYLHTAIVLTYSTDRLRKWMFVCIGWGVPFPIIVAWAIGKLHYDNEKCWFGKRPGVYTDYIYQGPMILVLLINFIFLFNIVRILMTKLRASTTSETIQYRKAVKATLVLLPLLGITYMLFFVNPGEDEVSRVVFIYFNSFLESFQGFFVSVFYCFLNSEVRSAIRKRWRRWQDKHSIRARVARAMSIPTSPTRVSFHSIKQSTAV
Sequence of Human A1 (P30542 whole entry): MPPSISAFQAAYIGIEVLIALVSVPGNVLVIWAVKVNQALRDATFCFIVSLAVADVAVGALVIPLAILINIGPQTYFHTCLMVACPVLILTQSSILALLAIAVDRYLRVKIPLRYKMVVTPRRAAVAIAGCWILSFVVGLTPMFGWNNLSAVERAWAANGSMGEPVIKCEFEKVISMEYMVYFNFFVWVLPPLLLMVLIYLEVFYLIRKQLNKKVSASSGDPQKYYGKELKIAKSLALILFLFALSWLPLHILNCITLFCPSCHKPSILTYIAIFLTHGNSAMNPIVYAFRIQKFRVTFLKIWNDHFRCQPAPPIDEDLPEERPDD

## COC(=O)N1CCC(CN2CCC(CNC(=O)c3cccc4[nH]c(C(C)C)nc34)CC2)CC1 [TD-8954, 4-(4-{[(2-isopropyl-1H-benzoimidazole-4-carbonyl)amino]methyl}-piperidin-1-ylmethyl)piperidine-1-carboxylic acid methyl ester]
Human A1
  Ki: > 1000 nM
Human A1; [4]
  inhibition at 1 µM: -4%
Human M3
  Ki: > 10000 nM
Human β2
  Ki: > 1000 nM
Rat CRF1
  Ki: > 1000 nM
Rat CRF1; [4]
  inhibition at 1 µM: -6%
Rat NMDA
  inhibition at 1 µM: -6%
Human COX1
  IC50: > 1000 nM
Human COX1; [5]
  inhibition at 1 µM: 2%
Human COX2
  IC50: > 1000 nM
Human COX2; [5]
  inhibition at 1 µM: -36%
Human PDE4
  % Inhibition of control (1 μM): −19%
Human A2A
  Ki: > 1000 nM
Human A2A; Human A2A, [3H]-CGS 21680 6 nM, TD-8954 1 μM
  % Inhibition of specific binding (1 μM): 16%
Human D2S
  Ki: > 1000 nM
Human D2S; [4]
  inhibition at 1 µM: 6%
Human AT1
  Ki: > 1000 nM
Human AT1; [4]
  inhibition at 1 µM: 2%
Human NK1
  Ki: > 1000 nM
Human NK1; [4]
  inhibition at 1 µM: -2%
Human NK2
  Ki: > 1000 nM
Human V1a
  Ki: > 1000 nM
Human V1a; [4]
  inhibition at 1 µM: 1%
Human CGRP
  Ki: > 1000 nM
Human 5-HT7
  Ki: > 1000 nM
Rat kainate
  pKi: <6
Rat kainate; TD-8954 1 μM
  % Inhibition of specific binding (1 μM): −6%
Human 5-HT1A
  Ki: > 1000 nM
Human 5-HT2B
  Ki: > 1000 nM
Human 5-HT2C
  Ki: > 1000 nM
Human 5-HT3a
  Ki: > 100000 nM
Guinea pig H1
  Ki: > 1000 nM
Human motilin
  Ki: > 1000 nM
[1]
  Ki: > 1000 nM
[1]; [4]
  inhibition at 1 µM: -2%
Rat PACAP (PAC1)
  Ki: > 1000 nM
Rat PACAP (PAC1); [4]
  inhibition at 1 µM: -3%
Human VPAC2 (VIP2)
  Ki: > 1000 nM
Human VPAC2 (VIP2); [4]
  inhibition at 1 µM: -19%
Rat σ (non-selective)
  pKi: <6
Rat GABA (non-selective)
  pKi: <6
Rat GABA (non-selective); TD-8954 1 μM
  % Inhibition of specific binding (1 μM): −6%
[2]
  pKi: <6
[2]; TD-8954 1 μM
  % Inhibition of specific binding (1 μM): −6%
Human Nav1.5
  effect on magnitude of inward human Nav1.5 sodium current: no effect
Rat Nav1.2
  effect on magnitude of inward rat Nav1.2a sodium current: no effect
Guinea pig κ kappa
  Ki: > 1000 nM
Guinea pig κ kappa; [4]
  inhibition at 1 µM: 22%
[3]
  Ki: > 1000 nM
[3]; [4]
  inhibition at 1 µM: 6%
